Columns and labels:
Format in all cases: biochemical
[1] = target: T1, tubulin tyrosine ligase (TTL) (Canis lupus familiaris, UniProt A0A8I3N5B1); assay: TTL tyrosination of carboxyfluorescein-labeled Tub-tag peptide (CF-Tub-tag), isocratic HPLC-fluorescence; settings: TTL:peptide 1:200, after 120 min of incubation at 37° C.
T1 construct: His-Tag (N); SUMO3 (Sumo) (N); made in house; host or cells: E. coli BL21(DE3)
T1 sequence (A0A8I3N5B1 1-377): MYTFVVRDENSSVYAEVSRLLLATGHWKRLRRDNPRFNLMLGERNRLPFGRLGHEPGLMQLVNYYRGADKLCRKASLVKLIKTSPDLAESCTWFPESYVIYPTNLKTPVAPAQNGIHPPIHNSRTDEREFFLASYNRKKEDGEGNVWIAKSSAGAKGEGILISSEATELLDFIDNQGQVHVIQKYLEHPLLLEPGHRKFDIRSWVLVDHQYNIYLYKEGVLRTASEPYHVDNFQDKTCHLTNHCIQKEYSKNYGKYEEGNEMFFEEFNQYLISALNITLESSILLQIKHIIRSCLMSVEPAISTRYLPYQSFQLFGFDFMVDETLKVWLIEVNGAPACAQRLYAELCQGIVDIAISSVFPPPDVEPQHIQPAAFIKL
Description: Tyrosination reactions were performed in a 250 μL solution consisting of 20 mM MES/K pH 7.0, 100 mM KCl, 10 mM MgCl2, 2.5 mM ATP, 1 mM tyrosine derivative, 0.2 mM peptide, 1 μM TTL and 5 mM DTT in case of compound 1, 2, 4 and 5 or 5 mM reduced glutathione in case of compound 3, respectively. The mixture was incubated at 37° C. and several aliquots (25 μL) were taken within 24 h, mixed with equal volumes of H2O+0.1% TFA and subjected either to isocratic analytical HPLC equipped with a fluorescence detector (Method A) or analytical UPLC-MS analysis. Quantities of substrate and product peptides were estimated from the corresponding peak-area in the fluorescence or UV detection spectrum (Ex/Em: 495/517).
Tyrosination reactions were performed in a 250 μL solution consisting of 20 mM MES/K pH 7.0, 100 mM KCl, 10 mM MgCl2, 2.5 mM ATP, 1 mM tyrosine derivative, 0.2 mM CF-Tub-tag 13, 1 μM TTL and 5 mM DTT in case of compound 2 or 5 mM reduced glutathione in case of compound 1, respectively. The mixture was incubated at 37° C. and several aliquots (25 μL) were taken, mixed with equal volumes of H2O+0.1% TFA and subjected to isocratic analytical HPLC equipped with a fluorescence detector (Method: A=H2O+0.1% TFA, B=MeCN+0.1% TFA; 35% B, 0-15 min, 10-100% B 15-17 min, 100% B 17-22 min, 100-35% B 22-25 min and 35% B 25-30 min.). […]

[2] = target: T1, tubulin tyrosine ligase (TTL); assay: TTL reaction on GBP4 followed by tryptic digest and HPLC-MS/MS; settings: 1 mM tyrosine derivative, 1 μM TTL, 5 μM nanobody, 37° C., 24 h
Description: Nanobodies were tyrosinated as described in Example 8. Proteins were separated by SDS-PAGE. Protein bands of interest were excised, soaked with 100 μL 50 mM (NH4)2CO3/ACN 1:1 and incubated at 30° C. for 10 min. The supernatant was removed and the gel pieces were incubated in 50 mM (NH4)2CO3 at 30° C. for further 10 min. The two incubation steps were repeated until the pieces were colorless. Hereafter, the gel pieces were dehydrated by the addition of 25 μL ACN, the supernatant removed and the gels were dried under reduced pressure. In-gel digest was performed in a total volume of 20 μL 50 mM (NH4)2CO3 at 37° C. for 12 h using 0.05 μg Trypsin. 20 μL ACN+0.5% TFA were added, the mixture was incubated in an ultrasonic bath, the supernatant transferred to LC glass vials, the solvent was removed under reduced pressure and the residual peptides resuspended in 6 μL 95% H2O+0.1% TFA, 5% ACN+0.1% TFA solution. Peptides were separated by HPLC and analysed by MSMS experiments.
Tyrosination reactions were performed in a 50 μL solution consisting of 20 mM MES/K pH 7.0, 100 mM KCl, 10 mM MgCl2, 2.5 mM ATP, 1 mM tyrosine derivative, 1 μM TTL, 5 μM nanobody and 5 mM reduced glutathione in case of compound 3 and 5 mM DTT in case of compound 1, 2, 9 and tyrosine (6), respectively. The mixture was incubated at 37° C. for 24 h. Proteins were separated by SDS-PAGE. Protein bands of interest were excised, soaked with 100 μL 50 mM (NH4)2CO3/ACN 1:1 and incubated at 30° C. for 10 min. The supernatant was removed and the gel pieces were incubated in 50 mM (NH4)2CO3 at 30° C. for further 10 min. The two incubation steps were repeated until the pieces were colourless. Hereafter, the gel pieces were dehydrated by the addition of 25 μL ACN, the supernatant removed and the gels were dried under reduced pressure. In-gel digest was performed in a total volume of 20 μL 50 mM (NH4)2CO3 at 37° C. for 12 h using 0.05 μg trypsin (Thermo Fisher Scientific, USA). 20 μL ACN+0.5% TFA was added, the mixture incubated in an ultrasonic bath, the supernatant transferred to LC glass vials, the solvent removed under reduced pressure and the residual peptides resuspended in 6 μL 95% H2O+0.1% TFA, 5% ACN+0.1% TFA solution. Peptides were separated by HPLC and analyzed by MSMS experiments.

[3] = target: T1, tubulin tyrosine ligase (TTL); assay: TTL-mediated incorporation of tyrosine derivative to the C-terminus of GBP4 followed by SPAAC to DBCO-biotin (SDS-PAGE/western blot); settings: for GBP4 converted (C-terminally modified GBP4): one hour; for GBP4 conversion: three hours
Description: Tyrosination reactions were performed in a 150 μL solution consisting of 20 mM MES/K pH 7.0, 100 mM KCl, 10 mM MgCl2, 2.5 mM ATP, 1 mM tyrosine derivative, 0.1-1 μM TTL, 5 μM nanobody and 5 mM reduced glutathione in case of compounds containing azides or 5 mM DTT for all other derivatives, respectively. The mixture was incubated at 37° C. for 1-3 h.
Tyrosination reactions were performed as described in Example 16 using compound 3, 5 mM reduced glutathione and a ratio of 10:1 GBP4/TTL for 3 h. The reaction mixtures were rebuffered to Dulbecco's PBS pH 7.4 and incubated with 30 eq. of Sulfo-Cy5-DBCO (Jena Bioscience GmbH, Germany) or DBCO-PEG4-biotin (Jena Bioscience GmbH, Germany) at 30° C. for 4 h. Proteins were separated by SDS-PAGE. Biotinylated nanobodies were wet blotted onto a nitrocellulose membrane using a Bio-Rad Mini-Protean Tetra System (250 mA, one hour). A streptavidin peroxidase conjugate (Merck Millipore, Germany) was used for detection. Fluorescently labeled nanobodies were visualized by a Fuji FLA-5000 laser imager (634 nm excitation, LPG-filter) (Fujifilm, Japan).

Structure (SMILES) | conjugate yield [1] [%] | C-terminal addition to GBP4 shown by HPLC-MS/MS [2] | GBP4 converted (C-terminally modified GBP4) ([3]; ratio 1:5 TTL/GBP4, 37° C.) [%] | GBP4 conversion ([3]; ratio 1:5 TTL/GBP4, 37° C.) [%] | GBP4 converted (C-terminally modified GBP4) ([3]; ratio 1:10 TTL/GBP4, 37° C.) [%] | GBP4 conversion ([3]; ratio 1:10 TTL/GBP4, 37° C.) [%]
N[C@@H](Cc1ccc(O)c(C=O)c1)C(=O)O [compound 1, 3-formyl-L-tyrosine] | 63 | successful C-terminal addition |  |  |  | 
N[C@@H](Cc1ccc(O)c([N+](=O)[O-])c1)C(=O)O [compound 2, 3-nitro-L-tyrosine] |  | successful C-terminal addition |  |  |  | 
[N-]=[N+]=Nc1cc(C[C@H](N)C(=O)O)ccc1O [compound 3, 3-azido-L-tyrosine] | 80 | successful C-terminal addition | 82 | 99 | 71 | 88
N[C@@H](Cc1ccc(O)cc1)C(=O)O [compound 6, L-tyrosine, reference compound] |  | successful C-terminal addition |  |  |  | 
Nc1cc(C[C@H](N)C(=O)O)ccc1O [compound 9, 3-amino-L-tyrosine] |  | successful C-terminal addition |  |  |  | 

Reference: patent US11958880B2, “Means and methods for site-specific functionalization of polypeptides” (LUDWIG-MAXIMILIANS-UNIVERSITÄT MÜNCHEN, priority 2014, dated 2024)
